From patent US6498945B1, “Sonodynamic therapy using an ultrasound sensitizer compound” (Amersham Health AS, priority 1997, dated 2002)
Entries after “also recorded” stand apart in the source; their conditions may differ. Read-outs that look alike come from different tables or passages of the source.

Assays:
HT-29 tumors [1] = details: mouse, in vivo
Source text: (§1) FIG. 2A is a graph of comparative biodistribution data of contrast agent Polymer 3 (NC100448) versus indocyanine green as control in female immunodeficient mice containing HT-29 tumors at one hour post intravenous injection of phosphate buffered saline solutions of each.
(§2) FIG. 2B is a graph of comparative biodistribution data of contrast agent Polymer 3 (NC100448) versus indocyanine green as control in female immunodeficient mice containing HT-29 tumors at three hours post intravenous injection of phosphate buffered saline solutions of each.

HT-29 tumors [2] = experiment: Biodistribution / tumor localization in immunodeficient mice with HT-29 tumors; details: female immunodeficient mice with HT-29 tumors
Source text: as §1, §2

[3] = system: leucocytes (white blood cells); experiment: Fate in dog blood (confocal scanning microscope, flow cytometry); type: in vivo; details: injected into beagle dogs; flow cytometry and fluorescence microscopy
STa receptor = STa receptor (Homo sapiens, UniProt P25092); experiment: Competitive inhibition of the STa receptor; type: binding
Experimental: Isolation and purification were done using the same HPLC conditions yielding about 0.1 mg yellow product. Ultra violet maxima in 1/1 water/methanol 10 mM ammonium acetate were: 202 nm (a 0.822), 277 nm (a 0.096), 457 nm (a 0.096), 482 nm (a 0.107). Mass spectrum (electrospray, negative): M−H 2359; M+Na 2381; theoretical M 2360.

[4] = cited from earlier work
[5] = system: HL-60 human peripheral blood promyelocytic leukemia cells; experiment: Sonication of HL-60 cell suspensions in vitro, cell death by Trypan Blue and LDH; type: cell-based; details: 148 nanomoles/ml, insonated 60 and 120 seconds, 65 volts, 47 kHz bath
Experimental: HL-60 human peripheral blood promyelocytic leukemia cells (American Type Culture Collection, Rockville, Md.) were grown at 37° C. in a 5% CO2/air atmosphere, in a 1:1 mixture of DMEM and IMEM fortified with 10% fetal bovine serum. Before use, the cells were centrifuged (5 min. at 1500 rpm), washed with phosphate buffered saline (PBS), and then resuspended in PBS, the volume being adjusted to provide cell suspensions containing […]. These were stored in crushed ice until used.
Viability was assessed by staining with Trypan Blue dye. 50 μl of the suspension were mixed with […] Trypan Blue solution (0.4%, Sigma), and the cell concentration counted using a Neubauer-type hemocytometer. Four or five large squares were counted, the blue (dead) cells being counted separately from the unstained (live) cells, and the results averaged. […]
For insonation, the voltage was set to the required value, the power was turned on, and the sample exposed for the required amount of time (secs.). Viability was again assessed with Trypan Blue, the samples were then centrifuged for 5 minutes at 2000 rpm, and a sample of cell free supernatant liquid taken for lactate dehydrogenase (LDH) measurement. […] The LDH was measured by a standard procedure using a Beckman Synchron CX5CE Instrument, the results were measured in IU/l, and afforded a quantitative measurement of cell death in the samples. […]

Sequence of STa receptor (P25092 24-1073, species assumed): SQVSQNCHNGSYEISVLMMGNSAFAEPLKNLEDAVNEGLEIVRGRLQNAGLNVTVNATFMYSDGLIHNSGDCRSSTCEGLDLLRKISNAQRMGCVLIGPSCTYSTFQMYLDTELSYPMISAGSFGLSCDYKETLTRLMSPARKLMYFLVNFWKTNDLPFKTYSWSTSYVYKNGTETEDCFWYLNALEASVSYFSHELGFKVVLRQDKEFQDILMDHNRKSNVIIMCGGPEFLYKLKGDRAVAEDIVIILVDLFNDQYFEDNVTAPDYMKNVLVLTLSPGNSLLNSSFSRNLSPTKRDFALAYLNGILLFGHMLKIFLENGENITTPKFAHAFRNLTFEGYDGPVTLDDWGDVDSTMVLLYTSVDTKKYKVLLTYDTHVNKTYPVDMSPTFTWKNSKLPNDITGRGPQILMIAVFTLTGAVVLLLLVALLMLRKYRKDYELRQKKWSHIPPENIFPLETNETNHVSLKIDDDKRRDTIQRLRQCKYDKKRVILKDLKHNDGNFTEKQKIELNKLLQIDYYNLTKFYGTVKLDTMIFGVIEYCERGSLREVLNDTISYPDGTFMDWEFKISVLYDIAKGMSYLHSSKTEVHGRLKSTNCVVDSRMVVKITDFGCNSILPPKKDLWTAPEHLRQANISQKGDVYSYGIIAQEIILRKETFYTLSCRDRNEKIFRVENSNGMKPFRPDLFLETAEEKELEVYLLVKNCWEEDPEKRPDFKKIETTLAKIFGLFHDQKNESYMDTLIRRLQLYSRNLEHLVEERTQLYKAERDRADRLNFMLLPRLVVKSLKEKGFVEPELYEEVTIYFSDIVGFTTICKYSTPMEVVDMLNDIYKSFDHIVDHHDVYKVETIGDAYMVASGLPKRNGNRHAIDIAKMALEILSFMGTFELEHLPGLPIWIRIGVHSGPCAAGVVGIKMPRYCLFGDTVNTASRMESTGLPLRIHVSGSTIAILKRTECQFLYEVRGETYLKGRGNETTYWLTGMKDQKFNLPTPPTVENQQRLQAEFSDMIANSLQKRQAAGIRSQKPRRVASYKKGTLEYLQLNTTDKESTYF

copolymer of melamine and aluminum(III)phthalocyanine tetrasulfonyl chloride [Example 5]
injected dose localized in the tumor after one hour (HT-29 tumors [1]): 0.1 % of the injected dose

[Melamine][SO2ClAlPc(SO3H)3]3 [Example 46]
injected dose localized in the tumor after one hour (HT-29 tumors [1]): 0.1 % of the injected dose

copolymer of PEG3400-α,ω-diamine and aluminum(III)phthalocyanine tetrasulfonyl chloride [Example 1]
injected dose localized in the tumor after one hour (HT-29 tumors [2]; solution in phosphate buffered saline injected, one hour): 4 % of the injected dose

Air-exposed-Tetronic-908-conjugated-to-fluorescein Isothiocyanate
binding to blood cells [3]: binds to a specific cell class within the blood; also recorded: attached to leucocytes (white blood cells)

CCOC(=O)c1c(I)c(NS(=O)(=O)c2cccc3c(N(C)C)cccc23)c(I)c(N(CC)C(C)=O)c1I [Example 52, Ethyl 3-(N-Acetyl-N-ethylamino)-5-[(5-dimethylamino-1-naphthylsulfonyl)amino]-2,4,6-triiodobenzoate]
melting point: 238 to 240 °C

ClAlPc(SO2NHPEG5000)4 [Example 45]
injected dose localized in the tumor after one hour (HT-29 tumors [1]): 2.5 % of the injected dose

Thiourea Linked 5-fluorescein to STa (syn. 2) [Example 79]
competitive inhibitor of the STa receptor (STa receptor): tested positive

Oc1ccc2ccccc2c1N=Nc1ccc(N=Nc2ccccc2)cc1 [Sudan III]
solubility in sesame oil ([4]; sesame oil): soluble in sesame oil
solubility in water ([4]; water): very insoluble in water

copolymer of PEG 5000-α,ω-diamine and aluminum(III)phthalocyanine tetrasulfonyl chloride [Example 4]
injected dose localized in the tumor after one hour (HT-29 tumors [1]): 2.5 % of the injected dose

[NH(PEG3400)NHSO2PcAlCl(SO3H)2SO2]n [Example 43]
injected dose localized in the tumor after one hour (HT-29 tumors [1]): 4 % of the injected dose

chloroaluminum phthalocyanine tetrasulfonate
cell killing under ultrasound (FIG. 1) [5]: Enhancement of Cell Killing

bisthioether 2:1 dye:polymer reaction product between 2-[2-[2-chloro-3-[[1,3-dihydro-1,1,-dimethyl-3-(3-sulfopropyl)-2H-benz[e]indol-2-ylidene]ethylidene]-5-(ethoxycarbonyl)-1-cyclohexen-1-yl]ethenyl]-1,1-dimethyl-3-(3-sulfopropyl)-1H-benz[e]indolium, inner salt, sodium salt and disodium PEG3,400-α,ω-dithiolate [Polymer 3]
concentration in the blood at three hours relative to one hour (HT-29 tumors [1]): decreased
concentration in the tumor at three hours relative to one hour (HT-29 tumors [1]): increased
detection in the tumor (FIG. 2A) (HT-29 tumors [1]; iv): detected in the tumor
detection in the tumor (FIG. 2B) (HT-29 tumors [1]; iv): detected in the tumor

CC1(C)C(/C=C/C=C/C=C/C=C2\N(CCCCS(=O)(=O)O)c3ccc4ccccc4c3C2(C)C)=[N+](CCCCS(=O)(=O)[O-])c2ccc3ccccc3c21 [indocyanine green]
detection in the tumor (FIG. 2A) (HT-29 tumors [2]; one hour post intravenous injection, PBS solution): negligibly detected
detection in the tumor (FIG. 2B) (HT-29 tumors [2]; three hours post intravenous injection, PBS solution): negligibly detected
